Changes are numbered by the printed parent chain. Entries after “also recorded” stand apart in the source; their conditions may differ.
How the values were obtained:
[1] = target: T1, TALK-2 L264A mutant channels (Homo sapiens, UniProt Q96T54, L264A); test: Pore blocker inhibition (dose-response, residual currents) in inside-out patches at +40 mV; format: cell-based; parameters: expressed in transfected cells; host or cells: Xenopus laevis oocytes (cRNA injection), excised inside-out patches; conditions: TALK-2 L264A
T1 sequence (Q96T54 1-332 L264A): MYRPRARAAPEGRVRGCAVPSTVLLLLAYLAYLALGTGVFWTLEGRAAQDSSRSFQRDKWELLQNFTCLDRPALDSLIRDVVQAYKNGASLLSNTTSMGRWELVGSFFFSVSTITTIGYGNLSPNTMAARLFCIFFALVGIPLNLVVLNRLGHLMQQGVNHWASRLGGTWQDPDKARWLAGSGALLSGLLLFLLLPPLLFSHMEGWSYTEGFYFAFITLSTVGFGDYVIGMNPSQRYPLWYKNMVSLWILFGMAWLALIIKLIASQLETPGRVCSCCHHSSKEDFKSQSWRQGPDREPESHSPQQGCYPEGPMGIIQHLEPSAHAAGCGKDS
Description: (§1) Data shown are the mean ± s.e.m and the number (n) of independent experiments and repeats of representative measurements with similar results is indicated in the figure.
(§2) Electrophysiological recordings: Excised patch measurements in inside-out configuration under voltage-clamp conditions were performed at room temperature (22 – 24 °C). Patch pipettes were made from thick-walled borosilicate glass GB 200TF-8P (Science Products, Germany), had resistances of 0.2–0.5 MΩ (tip diameter of 10 - 25 µm) and filled with a pipette solution (in mM): 120 KCl, 10 HEPES and 3.6 CaCl2 (pH 7.0 - 8.5 adjusted with KOH/HCl) or 120 KCl, 10 AMPSO and 3.6 CaCl2 (pH 9.0 - 10.5 adjusted with KOH/HCl). Intracellular bath solutions and compounds were applied to the cytoplasmic side of excised patches for the various K^+ channels via a gravity flow multi-barrel pipette system. Intracellular solution had the following composition (in mM): 120 KCl, 10 HEPES, 2 EGTA and 1 Pyrophosphate (pH adjusted with KOH/HCl). In other intracellular bath solutions, K^+ was replaced by Rb^+ (pH 7.4 adjusted with RbOH/HCl). Currents were recorded with an EPC10 amplifier (HEKA electronics, Germany) and sampled at 10 kHz or higher and filtered with 3 kHz (-3 dB) or higher as appropriate for sampling rate.
(§3) Data analysis and statistics were done using Fitmaster (HEKA electronics, version: v2x73.5, Germany), Microsoft Excel 2021 (Microsoft Corporation, USA), and Igor Pro 9 software (WaveMetrics Inc., USA). Recorded currents were analyzed from stable membrane patches at a voltage defined in the respective figure legend or with a voltage protocol as indicated in the respective figure. […] Percentage inhibition or residual currents upon blocker application for a ligand (drug or bioactive lipid) was calculated from stable currents of excised membrane patches using the following Eqs. 2 and 3:2 %inhibition=1−Iinhibited/Ibasal*100 3 Residual current=100−%inhibition where Iinhibited refers to the stable current level recorded in the presence of a given concentration of a drug or bioactive lipid and Ibasal to the measured current before ligand application.

[2] = target: T2, WT TALK-2 channels (Homo sapiens, UniProt Q96T54); test: as above; format: cell-based; parameters: expressed in transfected cells; host or cells: Xenopus laevis oocytes (cRNA injection), excised inside-out patches; conditions: for blocker inhibition upon activation by 2-APB: 2-APB pre-activated
T2 sequence (Q96T54 1-332): T1 sequence (Q96T54 1-332 L264A) with A264L
Description: as §1, §2, §3

[3] = target: T3, WT TALK-2 channels (human K2P17.1) (Homo sapiens, UniProt Q96T54); test: Inside-out patch-clamp, ligand activation of channel currents at +40 mV (oocytes)
T3 sequence (Q96T54 1-332): T1 sequence (Q96T54 1-332 L264A) with A264L
Description: Oocytes were surgically removed from anesthetized adult females, treated with type II collagenase (Sigma-Aldrich/Merck, Germany) and manually defolliculated. 50 nl of a solution containing the K^+ channel specific cRNA was injected into Dumont stage V - VI oocytes and subsequently incubated at 17 °C in a solution containing (mM): 54 NaCl, 30 KCl, 2.4 NaHCO3, 0.82 MgSO4 x 7 H2O, 0.41 CaCl2, 0.33 Ca(NO3)2 x 4 H2O and 7.5 TRIS (pH 7.4 adjusted with NaOH/HCl) for 1–7 days before use. Electrophysiological recordings: Excised patch measurements in inside-out configuration under voltage-clamp conditions were performed at room temperature (22 – 24 °C). […] Intracellular bath solutions and compounds were applied to the cytoplasmic side of excised patches for the various K^+ channels via a gravity flow multi-barrel pipette system. Intracellular solution had the following composition (in mM): 120 KCl, 10 HEPES, 2 EGTA and 1 Pyrophosphate (pH adjusted with KOH/HCl). In other intracellular bath solutions, K^+ was replaced by Rb^+ (pH 7.4 adjusted with RbOH/HCl). Currents were recorded with an EPC10 amplifier (HEKA electronics, Germany) and sampled at 10 kHz or higher and filtered with 3 kHz (-3 dB) or higher as appropriate for sampling rate.
Recorded currents were analyzed from stable membrane patches at a voltage defined in the respective figure legend or with a voltage protocol as indicated in the respective figure. The fold activation (fold change in (tail) current amplitude) of a ligand (drug or bioactive lipid) was calculated from Eq. 1:1 Fold activationFA=Iactivated/Ibasal where Iactivated represents the stable current level in the presence of a given concentration of a respective ligand and Ibasal the measured current before ligand application. Percentage inhibition or residual currents upon blocker application for a ligand (drug or bioactive lipid) was calculated from stable currents of excised membrane patches using the following Eqs. 2 and 3:2 %inhibition=1−Iinhibited/Ibasal*100 3 Residual current=100−%inhibition where Iinhibited refers to the stable current level recorded in the presence of a given concentration of a drug or bioactive lipid and Ibasal to the measured current before ligand application. The macroscopic half-maximal concentration-inhibition relationship of a ligand was obtained using a Hill-fit for dose-response curves as depicted in Eq. 4:4 %inhibition/activation=Ibase+Imax−Ibase/1+x1/2/x^rate where base and max are the currents in the absence and presence of a respective ligand, x is the concentration of the ligand, x1/2 is the ligand concentration at which the activatory or inhibitory effect is half-maximal, rate is the Hill coefficient.

[4] = target: T2, WT TALK-2 channels; test: Cysteine modification assay with MTS-ET, control (inside-out patch); conditions: basal state or activated with 2-APB or oleoyl-CoA; 1.0 mM MTS-ET
Description: To investigate the latter, we utilized a cysteine modification assay.
Oocytes were surgically removed from anesthetized adult females, treated with type II collagenase (Sigma-Aldrich/Merck, Germany) and manually defolliculated. 50 nl of a solution containing the K^+ channel specific cRNA was injected into Dumont stage V - VI oocytes and subsequently incubated at 17 °C in a solution containing (mM): 54 NaCl, 30 KCl, 2.4 NaHCO3, 0.82 MgSO4 x 7 H2O, 0.41 CaCl2, 0.33 Ca(NO3)2 x 4 H2O and 7.5 TRIS (pH 7.4 adjusted with NaOH/HCl) for 1–7 days before use. Electrophysiological recordings: Excised patch measurements in inside-out configuration under voltage-clamp conditions were performed at room temperature (22 – 24 °C). […] Currents were recorded with an EPC10 amplifier (HEKA electronics, Germany) and sampled at 10 kHz or higher and filtered with 3 kHz (-3 dB) or higher as appropriate for sampling rate.
Data analysis and statistics were done using Fitmaster (HEKA electronics, version: v2x73.5, Germany), Microsoft Excel 2021 (Microsoft Corporation, USA), and Igor Pro 9 software (WaveMetrics Inc., USA). Recorded currents were analyzed from stable membrane patches at a voltage defined in the respective figure legend or with a voltage protocol as indicated in the respective figure.

[5] = target: T4, WT TREK-2 channels (human K2P10.1) (Homo sapiens, UniProt P57789); test: Tail current deactivation kinetics with pore blocker (inside-out patch); format: cell-based; conditions: intracellular Rb+ without blocker
T4 construct: expressed in transfected cells; host or cells: Xenopus laevis oocytes (cRNA injection), excised inside-out patches
T4 sequence (P57789 1-538): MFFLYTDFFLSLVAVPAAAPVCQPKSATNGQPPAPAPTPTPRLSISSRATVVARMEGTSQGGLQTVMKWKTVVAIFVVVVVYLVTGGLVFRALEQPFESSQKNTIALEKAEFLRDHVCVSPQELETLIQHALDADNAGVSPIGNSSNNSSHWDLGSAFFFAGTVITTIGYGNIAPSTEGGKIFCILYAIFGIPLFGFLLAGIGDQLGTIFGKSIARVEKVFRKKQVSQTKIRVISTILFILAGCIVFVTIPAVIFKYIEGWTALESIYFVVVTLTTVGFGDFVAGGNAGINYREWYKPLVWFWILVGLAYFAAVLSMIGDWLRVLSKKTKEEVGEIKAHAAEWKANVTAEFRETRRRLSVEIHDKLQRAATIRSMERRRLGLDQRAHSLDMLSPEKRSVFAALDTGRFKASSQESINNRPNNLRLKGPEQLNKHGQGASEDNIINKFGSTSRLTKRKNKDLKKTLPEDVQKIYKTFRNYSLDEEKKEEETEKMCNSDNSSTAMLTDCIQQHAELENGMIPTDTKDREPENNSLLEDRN

[6] = target: T2, WT TALK-2 channels; test: as above; format: cell-based; parameters: expressed in transfected cells; host or cells: Xenopus laevis oocytes (cRNA injection), excised inside-out patches; conditions: intracellular Rb+ without blocker; step to +100 mV, repolarization to -80 mV
Description: In voltage-gated K^+ (Kv) channels, the closing of the lower gate can be prevented by the binding of blockers such as tetra-pentyl-ammonium (TPenA) in the pore cavity and, thereby, causing a slowing of the deactivation kinetics which is known as the ‘foot in the door’ effect[33],[34]. To test for such a mechanism in TALK-2, we activated the channels with a voltage step to +100 mV in the presence of intracellular Rb^+ followed by a repolarization step to -80 mV (to induce tail currents) with and without the K2P channel pore blocker TPenA. […] We hypothesize, that the two gates are strongly coupled and, therefore, opening the SF gate by depolarization should also open the lower gate, which then consequently would allow blocker (like TPenA) binding within the pore cavity (Fig. 5a cartoon). Upon repolarization, however, the bound TPenA blocker obstructs closure of the lower gate and thereby, hinders the SF from closure/inactivation (gate coupling).

SMILES: COc1ccc(CC(=O)NCc2ccccc2-c2ccccc2C(=O)NCc2ccc(F)cc2F)cc1 [A1899]
- Residual currents with 10 µM A1899 ([1]; 10 µM A1899): 41.55%
- blocker inhibition upon activation by 2-APB [2]: strong inhibition
- Residual currents with 10 µM A1899 ([2]; TALK-2 WT + 1.0 mM 2-APB): 50.53%
- Residual currents with 10 µM A1899 ([2]; TALK-2 WT): 100.95%
- blocker inhibition of unstimulated TALK-2 channels [2]: little inhibition

SMILES: COc1ccc(CC(=O)NCc2ccccc2-c2ccccc2C(=O)NCCc2cccnc2)cc1 [AVE0118]
- Residual currents with 50 µM AVE0118 ([1]; 50 µM AVE0118): 14.56%
- blocker inhibition upon activation by 2-APB [2]: strong inhibition
- Residual currents with 50 µM AVE0118 ([2]; TALK-2 WT + 1.0 mM 2-APB): 12.33%
- Residual currents with 50 µM AVE0118 ([2]; TALK-2 WT): 96.7%
- blocker inhibition of unstimulated TALK-2 channels [2]: little inhibition

SMILES: c1ccc(-c2nn[nH]n2)c(Nc2cccc3c2CCCC3)c1 [BL-1249]
- activation of TALK-2 channels by BL-1249 ([3]; 50 µM BL-1249, +40 mV): robust and reversible channel activation
- Fold activation 50 µM BL-1249 ([3]; 50 µM, TALK-2 WT): 72.38 fold

SMILES: C[N+](C)(C)CCSS(C)(=O)=O.[Cl-] [MTS-ET]
- effect of MTS-ET on WT TALK-2 currents [4]: almost no effect; also recorded: insensitive

SMILES: [Rb+] [Rb^+]
- deactivation time constant τ of tail currents [5]: 17.5 ± 1.7 ms
- Fold Rb+ activation ([3]; TALK-2 WT): 9.12 fold
- deactivation time constant τ of tail currents [6]: 3.0 ± 0.2 ms

SMILES: O=C(NCc1ccccc1-c1ccccc1C(=O)NCCc1ccccn1)OCc1ccccc1 [S9947]
- Residual currents with 50 µM S9947 ([1]; 50 µM S9947): 41.47%
- blocker inhibition upon activation by 2-APB [2]: strong inhibition
- Residual currents with 50 µM S9947 ([2]; TALK-2 WT + 1.0 mM 2-APB): 6.15%
- Residual currents with 50 µM S9947 ([2]; TALK-2 WT): 98.48%
- blocker inhibition of unstimulated TALK-2 channels [2]: little inhibition
